The structures appear in SMILES notation.

The assay deals with Sodium-dependent dopamine transporter (Rattus norvegicus, UniProt P23977). The assay can be described thus: Inhibition of [3H]dopamine uptake at DAT in Sprague-Dawley rat striatum synaptosome. It counts as tissue-based.
Sequence of Sodium-dependent dopamine transporter (P23977 whole entry): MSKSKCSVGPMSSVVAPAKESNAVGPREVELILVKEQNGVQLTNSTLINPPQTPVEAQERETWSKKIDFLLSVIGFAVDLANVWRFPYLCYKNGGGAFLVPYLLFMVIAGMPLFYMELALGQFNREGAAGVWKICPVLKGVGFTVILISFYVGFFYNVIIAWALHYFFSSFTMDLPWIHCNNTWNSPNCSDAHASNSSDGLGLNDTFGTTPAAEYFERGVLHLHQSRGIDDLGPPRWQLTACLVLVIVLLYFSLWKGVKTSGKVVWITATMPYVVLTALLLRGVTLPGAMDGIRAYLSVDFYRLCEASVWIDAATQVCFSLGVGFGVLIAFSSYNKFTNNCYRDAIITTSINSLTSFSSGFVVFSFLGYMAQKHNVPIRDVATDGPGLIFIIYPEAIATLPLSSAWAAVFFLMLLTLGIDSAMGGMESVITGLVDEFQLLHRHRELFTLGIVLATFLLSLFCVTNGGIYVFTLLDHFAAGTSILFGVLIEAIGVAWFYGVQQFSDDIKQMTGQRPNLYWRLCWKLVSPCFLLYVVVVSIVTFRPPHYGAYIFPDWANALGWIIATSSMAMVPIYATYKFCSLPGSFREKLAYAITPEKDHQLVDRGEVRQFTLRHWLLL
As a reminder, the Ki is a dissociation constant, usually derived from enzyme kinetics or from competition with a known ligand. Take `Fc1ccc(C(OCCN2CC3CC(C2)N3Cc2cc3ccccc3s2)c2ccc(F)cc2)cc1`: the Ki is 35 nM. This lies in the double-digit nanomolar range.

The molecule `Fc1ccc(C(OCCN2CC3CC(C2)N3CC2=Cc3ccccc3C2)c2ccc(F)cc2)cc1` came in with a Ki of 6.5 nM. The same measure for `Cc1ccccc1/C=C/CN1C2CC1CN(CCOC(c1ccc(F)cc1)c1ccc(F)cc1)C2`: 6.25 nM; for `Fc1ccc(C(OCCN2CC3CC(C2)N3C/C=C/c2ccco2)c2ccc(F)cc2)cc1`: 8.8 nM. The same measure for `Fc1ccc(C(OCCN2CC3CC(C2)N3C/C=C/c2cccs2)c2ccc(F)cc2)cc1`: 12.6 nM.

Turning to `Fc1ccc(C(OCCN2CC3CC(C2)N3C/C=C/c2ccccc2)c2ccc(F)cc2)cc1`, the Ki worked out at 9.1 nM. The same measure for `Fc1ccc(C(OCCN2CC3CC(C2)N3C/C=C/c2ccc3ccccc3c2)c2ccc(F)cc2)cc1`: 45.6 nM.

Molecule `Fc1ccc(C(OCCN2CC3CC(C2)N3Cc2cc3ccccc3[nH]2)c2ccc(F)cc2)cc1` returned an inhibitory constant (Ki) of 5.5 nM.

With `Fc1ccc(C(OCCN2CC3CC(C2)N3Cc2cc3ccccc3o2)c2ccc(F)cc2)cc1`, the inhibition constant (Ki) was determined as 37.5 nM.

The record behind these values is ChEMBL document CHEMBL1147946, “3-{2-[Bis-(4-fluorophenyl)methoxy]ethyl}-6-substituted-3,6-diazabicyclo[3.1.1]heptanes as novel potent dopamine uptake inhibitors” (Bioorg Med Chem, 2007).
